{"source": "patent US20250319191A1", "about": "“PHARMACEUTICAL COMPOSITION COMPRISING HYALURONIC ACID COMPLEX FOR PREVENTION OR TREATMENT OF SKIN DISEASE” (AJOU UNIVERSITY INDUSTRY-ACADEMIC COOPERATION FOUNDATION, priority 2021, published 2025)", "target": "recombinant TLR4 (Homo sapiens, UniProt O00206)", "sequence (O00206 24-839, species assumed)": "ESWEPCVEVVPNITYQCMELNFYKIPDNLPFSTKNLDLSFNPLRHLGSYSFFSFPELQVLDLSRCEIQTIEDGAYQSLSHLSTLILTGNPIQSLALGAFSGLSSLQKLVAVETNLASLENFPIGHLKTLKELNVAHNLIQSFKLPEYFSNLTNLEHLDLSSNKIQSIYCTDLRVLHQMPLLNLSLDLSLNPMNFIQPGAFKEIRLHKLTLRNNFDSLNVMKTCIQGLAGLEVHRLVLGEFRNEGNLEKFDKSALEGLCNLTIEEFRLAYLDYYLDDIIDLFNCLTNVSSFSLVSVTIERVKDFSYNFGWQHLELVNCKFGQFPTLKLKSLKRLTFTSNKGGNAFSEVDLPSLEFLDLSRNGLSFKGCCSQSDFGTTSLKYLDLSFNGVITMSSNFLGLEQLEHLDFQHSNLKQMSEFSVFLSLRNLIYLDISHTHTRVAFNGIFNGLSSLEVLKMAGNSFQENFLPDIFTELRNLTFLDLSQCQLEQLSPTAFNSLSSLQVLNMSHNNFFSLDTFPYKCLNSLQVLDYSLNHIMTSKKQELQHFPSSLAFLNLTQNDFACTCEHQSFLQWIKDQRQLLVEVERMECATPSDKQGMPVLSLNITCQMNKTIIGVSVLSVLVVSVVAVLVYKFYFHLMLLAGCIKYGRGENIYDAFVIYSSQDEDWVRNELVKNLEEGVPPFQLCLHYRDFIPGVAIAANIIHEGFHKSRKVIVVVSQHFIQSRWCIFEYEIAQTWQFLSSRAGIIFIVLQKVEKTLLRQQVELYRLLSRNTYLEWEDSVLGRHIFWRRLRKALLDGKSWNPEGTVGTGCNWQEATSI", "test": "Interaction with TLR4 by surface plasmon resonance", "assay_type": "binding", "conditions": "0-800 μg/ml, 10 μl/min, 120 seconds", "description": "In order to immobilize a target receptor on an assay chip, the receptor was immobilized on the chip by flowing recombinant TLR4 while flowing an EDC/NHS solvent. Thereafter, ethanolamine was flowed to remove weakly immobilized or non-immobilized receptor on the chip.", "data": [{"substance": "hyaluronic acid [10 kDa free HA]", "values": [{"measurement": "change in response unit (RU) value", "result": "the increase in RU value identified in the HACN group was not observed"}]}]}
